# Measurements taken from patent publication US20240343727A1, “PYRIDAZINONE OR PYRIDINONE COMPOUNDS, PREPARATION METHODS AND USES THEREOF” (InventisBio Co., Ltd., priority 2021, published 2024).
# pIC50: −log10 of the molar value.
# Biological target: T1, PARP7 (Homo sapiens, UniProt Q7Z3E1)
# T1 sequence (Q7Z3E1 1-657): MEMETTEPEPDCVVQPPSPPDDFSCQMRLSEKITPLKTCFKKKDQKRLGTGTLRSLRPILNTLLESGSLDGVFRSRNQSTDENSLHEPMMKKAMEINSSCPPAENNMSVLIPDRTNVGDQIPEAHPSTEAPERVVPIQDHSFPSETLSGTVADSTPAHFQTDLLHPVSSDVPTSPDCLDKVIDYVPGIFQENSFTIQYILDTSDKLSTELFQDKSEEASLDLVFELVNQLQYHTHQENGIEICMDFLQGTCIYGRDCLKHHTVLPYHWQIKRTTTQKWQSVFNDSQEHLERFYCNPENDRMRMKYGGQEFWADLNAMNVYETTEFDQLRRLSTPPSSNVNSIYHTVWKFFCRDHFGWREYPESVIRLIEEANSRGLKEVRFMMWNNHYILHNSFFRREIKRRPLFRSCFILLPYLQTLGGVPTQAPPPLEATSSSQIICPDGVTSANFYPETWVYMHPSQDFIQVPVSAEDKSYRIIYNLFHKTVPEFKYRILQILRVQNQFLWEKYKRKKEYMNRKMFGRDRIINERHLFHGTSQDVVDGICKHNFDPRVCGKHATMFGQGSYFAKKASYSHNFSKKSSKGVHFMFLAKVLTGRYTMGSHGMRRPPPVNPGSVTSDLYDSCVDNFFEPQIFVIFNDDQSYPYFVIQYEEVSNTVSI
# Test: PARP7 TR-FRET assay (binding, displacement of biotinylated Probe A)
# Settings: 6 nM PARP7, 2 nM Probe A, 25° C., 30 min
# Procedure: Biological Assay Example A: PARP7 TR-FRET Assay
# A time-resolved fluorescence energy transfer (TR-FRET) assay was used to test binding activity of compounds to PARP7. Two microliter test compound was added in 384-well plate. Reactions were performed in a 6 uL volume by adding 4 uL mixture of PARP7 and Probe A (a biotinylated probe binding to the PARP7: N-(6-(2-(4-((2-(6-oxo-5-(trifluoromethyl)-1,6-dihydropyridazin-4-yl) isoindolin-5-yl) oxy) piperidin-1-yl) acetamido) hexyl)-5-((3aS,4S,6aR)-2-oxohexahydro-1H-thieno [3,4-d]imidazol-4-yl) pentanamide, made as reported in WO2019212937A1) in assay buffer (20 mM HEPES pH 8.0, 100 mM NaCl, 0.1% BSA, 2 mM DTT and 0.002% Tween20). The final concentration of PARP7 and Probe A were 6 nM and 2 nM, incubating with test compounds at 25° C. for 30 min. Four microliter ULight-anti 6xHis and LANCE Eu-W1024 labeled streptavidin (PerkinElmer) were added with the final concentration of ULight-anti 6xHis and LANCE Eu-W1024 at 4 nM and 0.25 nM. The reaction mixture was incubated at 25° C. for 30 min. The plate was read on a Tecan Spark plate reader (excitation wavelength at 320 nm, emission wavelength at 615 nm and 665 nm with a 90 us delay. The ratio of the 665/615 nm emission was calculated for each well to the amount of complex of PARP7 and Probe A in each well was calculated. The 0.25% DMSO vehicle was used as control and no PARP7 well was as blank well. Inhibition rate is calculated with the formula of % inhibition=100-100*(TRFcmpd-TRFblank)/(TRFcontrol−TRFblank). Inhibition IC50 is calculated with the equation of Y=Bottom+ (Top-Bottom)/(1+10^((LogIC50−X) *Hill Slope))
row,pIC50,Structure (SMILES)
1,> 7.00,O=C(CC1CN(c2cc(C(F)(F)F)c(=O)[nH]n2)c2cc(F)ccc2O1)N1CCN(c2ncc(Br)cn2)CC1 (stereo not drawn) [Compound 142]
2,> 7.00,O=C(c1cc(Oc2n[nH]c(=O)c(C(F)(F)F)c2N2CC3(C2)CC(F)(F)C3)ccn1)N1CCN(c2ccc(C(F)(F)F)cn2)CC1 [Compound 148]
3,< 6.00,"O=C(CC1CN(c2n[nH]c(=O)c3cc(OCC(F)F)ccc23)CCO1)N1CCN(c2ncc(C(F)(F)F)cn2)CC1 (single isomer, unassigned) [Compound 208]"
4,> 7.00,N#Cc1cnc(N2CCN(C(=O)c3cc(Oc4n[nH]c(=O)c(C(F)(F)F)c4N4CC5(CCC5)C4)ccn3)CC2)nc1 [Compound 273]
5,> 7.00,"O=C(CC1CN(c2n[nH]c(=O)c3ccc(C4CC4)cc23)CCO1)N1CCN(c2ncc(C(F)(F)F)cn2)CC1 (single isomer, unassigned) [Compound 103]"
6,> 7.00,"O=C(CC1CN(c2n[nH]c(=O)c3c(F)cccc23)CCO1)N1CCN(c2ncc(C(F)(F)F)cn2)CC1 (single isomer, unassigned) [Compound 109]"
7,6.00 to 7.00,"O=C(CC1CN(c2cc(C(F)(F)F)c(=O)[nH]n2)c2cc(F)ccc2O1)N1CCN(c2ncc(C(F)(F)F)cn2)CC1 (single isomer, unassigned) [Compound 131]"
8,< 6.00,"O=C(COC1CCOc2c1n[nH]c(=O)c2Br)N1CCN(c2ncc(C(F)(F)F)cn2)CC1 (single isomer, unassigned) [Compound 9]"
9,> 7.00,"CS(=O)(=O)Cc1ccc2c(c1)N(c1cc(C(F)(F)F)c(=O)[nH]n1)CC(CC(=O)N1CCN(c3ncc(C(F)(F)F)cn3)CC1)O2 (single isomer, unassigned) [Compound 271]"
10,< 6.00,"O=C(CC1CN(c2n[nH]c(=O)c3cc(Cl)cc(F)c23)CCO1)N1CCN(c2ncc(C(F)(F)F)cn2)CC1 (single isomer, unassigned) [Compound 241]"
11,> 7.00,COC1CN(c2c(Oc3ccnc(C(=O)N4CCN(c5ncc(C(F)(F)F)cn5)[C@H](C)C4)c3)n[nH]c(=O)c2C(F)(F)F)C1 [Compound 342]
12,> 7.00,"C[C@@H]1CN(C(=O)CC2CN(c3cc(C(F)(F)F)c(=O)[nH]n3)c3cc(C#N)ccc3O2)CCN1c1cnc(C(F)(F)F)cn1 (single isomer, unassigned) [Compound 153]"
13,> 7.00,"N#CC1(c2ccc3c(c2)N(c2cc(C(F)(F)F)c(=O)[nH]n2)CC(CC(=O)N2CCN(c4ncc(C(F)(F)F)cn4)CC2)O3)CC1 (single isomer, unassigned) [Compound 137]"
14,> 7.00,"O=C(CC1CN(c2n[nH]c(=O)c3ncccc23)CCO1)N1CCN(c2ncc(C(F)(F)F)cn2)CC1 (single isomer, unassigned) [Compound 125]"
15,> 7.00,O=C(C[C@@H]1CN(c2n[nH]c(=O)c3ccc(N4CC(F)C4)cc23)CCO1)N1CCN(c2ncc(C(F)(F)F)cn2)CC1 [Compound 207]
16,> 7.00,O=C(c1cccc(Oc2n[nH]c(=O)c(C(F)(F)F)c2N2CC3(CCC3)C2)c1)N1CCN(c2ccc(C3CC3)cn2)CC1 [Compound 177]
17,6.00 to 7.00,"O=C(CC1CN(c2cc(C(F)(F)F)c(=O)[nH]n2)c2cc(C(F)F)ccc2O1)N1CCN(c2cnc(C(F)(F)F)cn2)CC1 (single isomer, unassigned) [Compound 146]"
18,> 7.00,"O=C(CC1CN(c2n[nH]c(=O)c3c(Cl)cccc23)CCO1)N1CCN(c2ncc(C(F)(F)F)cn2)CC1 (single isomer, unassigned) [Compound 93]"
19,> 7.00,O=C(c1cccc(Oc2n[nH]c(=O)c(C(F)(F)F)c2N2CC3(CCC3)C2)c1)N1CCN(c2ncc(C(F)(F)F)cn2)CC1 [Compound 70]
20,> 7.00,O=C(CC1CN(c2n[nH]c(=O)c3c(F)cc(Cl)cc23)CCO1)N1CCN(c2ncc(C(F)(F)F)cn2)CC1 (stereo not drawn) [Compound 242]
21,> 7.00,"N#Cc1cnc(N2CCN(C(=O)CC3CN(c4cc(C(F)(F)F)c(=O)[nH]n4)c4cc(F)ccc4O3)CC2)nc1 (single isomer, unassigned) [Compound 264]"

row,pIC50,Structure (SMILES)
1,> 7.00,O=C(c1cccc(Oc2n[nH]c(=O)c(C(F)(F)F)c2NC2CC(F)(F)C2)c1)N1CCN(c2ncc(C(F)(F)F)cn2)CC1 [Compound 167]
2,6.00 to 7.00,"C#Cc1c(C)c(N2CCOC(CC(=O)N3CCN(c4ncc(C(F)(F)F)cn4)CC3)C2)n[nH]c1=O (single isomer, unassigned) [Compound 113]"
3,> 7.00,C[C@@H]1C[C@@H](OCC(=O)N2CCN(c3ncc(C(F)(F)F)cn3)CC2)c2n[nH]c(=O)c(C(F)(F)F)c2O1 [Compound 56]
4,6.00 to 7.00,"N#Cc1ccc(N2CCN(C(=O)CC3CN(c4cc(C(F)(F)F)c(=O)[nH]n4)c4cc(Cl)ccc4O3)CC2)nc1 (single isomer, unassigned) [Compound 225]"
5,> 7.00,"C#Cc1c(C)c(N2CCOC(CC(=O)N3CCN(c4ncc(C(F)(F)F)cn4)CC3)C2)n[nH]c1=O (single isomer, unassigned) [Compound 89]"
6,> 7.00,"O=C(CC1CN(c2cc(C(F)(F)F)c(=O)[nH]n2)c2cc(F)ccc2O1)N1CCN(c2ncc(C(F)(F)F)cn2)CC1 (single isomer, unassigned) [Compound 130]"
7,> 7.00,C[C@H]1CN(C(=O)c2cccc(Oc3n[nH]c(=O)c(C(F)(F)F)c3N3CC4(CCO4)C3)c2)CCN1c1ncc(C(F)(F)F)cn1 [Compound 254]
8,> 7.00,C#CC1CN(c2c(Oc3cccc(C(=O)N4CCN(c5ncc(C(F)(F)F)cn5)CC4)c3)n[nH]c(=O)c2C(F)(F)F)C1 [Compound 185]
9,> 7.00,"O=C(CC1CN(c2cc(C(F)(F)F)c(=O)[nH]n2)c2cc(C3CC3)ccc2O1)N1CCN(c2ncc(C(F)(F)F)cn2)CC1 (single isomer, unassigned) [Compound 134]"
10,> 7.00,"C[C@@H]1CN(C(=O)CC2CN(c3cc(C(F)(F)F)c(=O)[nH]n3)c3cc(Cl)ccc3O2)CCN1c1ncc(C#N)cn1 (single isomer, unassigned) [Compound 329]"
11,> 7.00,O=C(c1cccc(Oc2n[nH]c(=O)c(C(F)(F)F)c2N2CC3(CCC3)C2)c1)N1CCN(c2cnc(C(F)F)cn2)CC1 [Compound 189]
12,> 7.00,O=C(c1cccc(Oc2n[nH]c(=O)c(C(F)(F)F)c2N2CC3(CCC3)C2)c1)N1CCN(c2ccc(C(F)(F)F)cn2)CC1 [Compound 187]
13,< 6.00,O=C(CO[C@H]1C[C@H](CC2CC2)Oc2c1n[nH]c(=O)c2C(F)(F)F)N1CCN(c2ncc(C(F)(F)F)cn2)CC1 (stereo in doubt) [Compound 184]
14,> 7.00,C#Cc1cnc(N2CCN(C(=O)c3cc(Oc4n[nH]c(=O)c(C(F)(F)F)c4N4CC5(C4)CC(F)(F)C5)ccn3)CC2)nc1 [Compound 317]
15,6.00 to 7.00,"O=C(CO[C@H]1CCNc2c1n[nH]c(=O)c2C(F)(F)F)N1CCN(c2ncc(C(F)(F)F)cn2)CC1 (single isomer, unassigned) [Compound 3]"
16,> 7.00,Cc1ccc(C(=O)N2CCN(c3ncc(C(F)(F)F)cn3)CC2)cc1Oc1n[nH]c(=O)c(C(F)(F)F)c1C [Compound 19]
17,> 7.00,"C[C@@H]1CN(C(=O)CC2CN(c3cc(C(F)(F)F)c(=O)[nH]n3)c3cc(C#N)ccc3O2)CCN1c1ncc(C(F)(F)F)cn1 (single isomer, unassigned) [Compound 152]"
18,> 7.00,CC1(C)CN(c2c(Oc3cccc(C(=O)N4CCN(c5ncc(C(F)(F)F)cn5)CC4)c3)n[nH]c(=O)c2C(F)(F)F)C1 [Compound 174]
19,> 7.00,"N#Cc1ccc2c(c1)N(c1cc(C(F)(F)F)c(=O)[nH]n1)CC(CC(=O)N1CCN(c3ncc(C(F)F)cn3)CC1)O2 (single isomer, unassigned) [Compound 219]"
20,> 7.00,"N#Cc1cnc(N2CCN(C(=O)CC3CN(c4cc(C(F)(F)F)c(=O)[nH]n4)c4ccccc4O3)CC2)nc1 (single isomer, unassigned) [Compound 250]"
21,6.00 to 7.00,"CN1CC[C@H](OCC(=O)N2CCN(c3ncc(C(F)(F)F)cn3)CC2)c2n[nH]c(=O)c(C(F)(F)F)c21 (single isomer, unassigned) [Compound 5]"
